For the assay, the system named is BDF1 mice, s.c. Lewis lung carcinoma, T/C %. Put plainly: NCI In Vivo Anticancer Drug Screen. Data for tumor model Lewis Lung Carcinoma (subcutaneous) in B6D2F1 (BDF1) mice. The method in brief: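 First, mice carry a transplantable tumor. Next, groups receive either compound or vehicle. Finally, survival or tumor dimensions in the dosed animals are divided by the corresponding control figure.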

[1] abbreviates: endpoint: median survival time, dose: 0.75 mg/kg/injection, schedule: Q01DX009 (ip), vehicle: saline, higher = longer survival.
Setting [2] is: endpoint: median survival time, dose: 12.5 micrograms/kg/injection, schedule: Q01DX009 (ip), vehicle: water, higher = longer survival.
Where [3] appears, read: endpoint: median survival time, dose: 25.0 micrograms/kg/injection, schedule: Q01DX009 (ip), vehicle: water, higher = longer survival.
The mark [4] stands for this setting: endpoint: median survival time, dose: 50.0 micrograms/kg/injection, schedule: Q01DX009 (ip), vehicle: water, higher = longer survival.
Setting [5] is: endpoint: median survival time, dose: 75.0 micrograms/kg/injection, schedule: Q04DX003 (ip), vehicle: water, higher = longer survival.
The mark [6] stands for this setting: endpoint: median survival time, dose: 150.0 micrograms/kg/injection, schedule: Q04DX003 (ip), vehicle: water, higher = longer survival.
Where [7] appears, read: endpoint: median survival time, dose: 300.0 micrograms/kg/injection, schedule: Q04DX003 (ip), vehicle: water, higher = longer survival.

Several values for one entry are separate records, joined by “and”; a condition that tells them apart may be missing. Equal values may be shown once. Inconclusive results are not listed. *1 amine or outer side, *2 acyl side, *3 side chain or, on linkers, in order; H or OH if unused. Where a SMILES comes first, the peptide text is derived from it. Bridges are numbered along the chain shown (N, C = ends). Roman numbers before positions name the chains, in order. [ ]: non-standard residue; d: D form. Actinocin(1to9) = Cc1c2oc3c(C)ccc(C(=O)[*:2])c3nc-2c(C(=O)[*:1])c(N)c1=O; NMeV = CN[CH](C(=O)O)C(C)C; Sar = CNCC(=O)O

On to `CC1OC(OCC2OC(Oc3c(-c4ccc(O)c(O)c4)oc4cc(O)cc(O)c4c3=O)C(O)C(O)C2O)C(O)C(O)C1O` (configuration not stated), for which the T/C was 104 % of control (endpoint: mean tumor weight, dose: 62.5 mg/kg/injection, schedule: Q01DX011 (ip), vehicle: saline, higher = larger tumour); 93 % of control (endpoint: mean tumor weight, dose: 125.0 mg/kg/injection, schedule: Q01DX011 (ip), vehicle: saline, higher = larger tumour); 67 % of control (endpoint: mean tumor weight, dose: 250.0 mg/kg/injection, schedule: Q01DX011 (ip), vehicle: saline, higher = larger tumour); 52 % of control (endpoint: mean tumor weight, dose: 500.0 mg/kg/injection, schedule: Q01DX011 (ip), vehicle: saline, higher = larger tumour).

With `Cc1ccc(S(=O)(=O)[O][Pb]([CH3])([CH3])[CH3])cc1`, the T/C (endpoint: median survival time, dose: 0.18 mg/kg/injection, schedule: Q01DX009 (ip), vehicle: saline, higher = longer survival) is 98 % of control and 122 % of control; the T/C (endpoint: median survival time, dose: 0.37 mg/kg/injection, schedule: Q01DX009 (ip), vehicle: saline, higher = longer survival) is 108 % of control; the T/C under setting [1] was 116 % of control; the T/C (endpoint: median survival time, dose: 1.5 mg/kg/injection, schedule: Q01DX009 (ip), vehicle: saline, higher = longer survival) is 109 % of control.

As to `C[C@]12CC[C@H](O)CC1=CC[C@@H]1[C@@H]2CC[C@]2(C)c3nc4ccccc4cc3C[C@@H]12`, the T/C (endpoint: mean tumor weight, dose: 0.2 mg/kg/injection, schedule: Q01DX011 (sc), vehicle: steriod suspending solution, higher = larger tumour) was 104 % of control; the T/C (endpoint: mean tumor weight, dose: 0.4 mg/kg/injection, schedule: Q01DX011 (sc), vehicle: steriod suspending solution, higher = larger tumour) is 87 % of control; the T/C (endpoint: mean tumor weight, dose: 0.8 mg/kg/injection, schedule: Q01DX011 (sc), vehicle: steriod suspending solution, higher = larger tumour) was 95 % of control; the T/C (endpoint: mean tumor weight, dose: 1.6 mg/kg/injection, schedule: Q01DX011 (sc), vehicle: steriod suspending solution, higher = larger tumour) is 117 % of control; the T/C (endpoint: mean tumor weight, dose: 3.25 mg/kg/injection, schedule: Q01DX011 (sc), vehicle: steriod suspending solution, higher = larger tumour) was 93 % of control; the T/C (endpoint: mean tumor weight, dose: 7.5 mg/kg/injection, schedule: Q01DX011 (sc), vehicle: steriod suspending solution, higher = larger tumour) was 63 % of control. Further, the T/C by setting is: (endpoint: mean tumor weight, dose: 15.6 mg/kg/injection, schedule: Q01DX011 (sc), vehicle: steriod suspending solution, higher = larger tumour) 70 % of control; (endpoint: mean tumor weight, dose: 31.3 mg/kg/injection, schedule: Q01DX011 (sc), vehicle: steriod suspending solution, higher = larger tumour) 43 % of control; (endpoint: mean tumor weight, dose: 60.0 mg/kg/injection, schedule: Q01DX011 (sc), vehicle: steriod suspending solution, higher = larger tumour) 95 % of control; (endpoint: mean tumor weight, dose: 62.5 mg/kg/injection, schedule: Q01DX011 (sc), vehicle: steriod suspending solution, higher = larger tumour) 91 % of control; (endpoint: mean tumor weight, dose: 90.0 mg/kg/injection, schedule: Q01DX011 (sc), vehicle: steriod suspending solution, higher = larger tumour) 83 % of control; (endpoint: mean tumor weight, dose: 125.0 mg/kg/injection, schedule: Q01DX011 (sc), vehicle: steriod suspending solution, higher = larger tumour) 52 % of control. The T/C (endpoint: mean tumor weight, dose: 500.0 mg/kg/injection, schedule: Q01DX011 (sc), vehicle: steriod suspending solution, higher = larger tumour) was 77 % of control.

`Oc1c(Cl)cc(Cl)cc1/C=N/NC(=S)Nc1cc(C(F)(F)F)cc(C(F)(F)F)c1`: the T/C (endpoint: median survival time, dose: 3.13 mg/kg/injection, schedule: Q01DX009 (ip), vehicle: olive oil, sesame oil, peanut oil, higher = longer survival) is 104 % of control and the T/C (endpoint: median survival time, dose: 12.5 mg/kg/injection, schedule: Q01DX009 (ip), vehicle: olive oil, sesame oil, peanut oil, higher = longer survival) is 90 % of control.

For the molecule `O=C(O)CCc1c[nH]c2ccc(N(CCCl)CCCl)cc12`, the T/C is, setting by setting: (endpoint: mean tumor weight, dose: 0.7 mg/kg/injection, schedule: Q01DX011 (ip), vehicle: carboxymethylcellulose (CMC), higher = larger tumour) 74 % of control; (endpoint: mean tumor weight, dose: 1.5 mg/kg/injection, schedule: Q01DX011 (ip), vehicle: carboxymethylcellulose (CMC), higher = larger tumour) 79 % of control; (endpoint: mean tumor weight, dose: 3.0 mg/kg/injection, schedule: Q01DX011 (ip), vehicle: carboxymethylcellulose (CMC), higher = larger tumour) 51 % of control.

For the molecule `CCC(C)C1NC(=O)C(NC(=O)c2c3nc4c(C(=O)NC5C(=O)NC(C(C)C)C(=O)N6CCCC6C(=O)N(C)CC(=O)N(C)C(C(C)C)C(=O)OC5C)ccc(C)c4oc-3c(C)c(=O)c2N)C(C)OC(=O)C(C(C)C)N(C)C(=O)CN(C)C(=O)C2CCCN2C1=O` (configuration not stated) (I: TIP[Sar][NMeV] / II: TVP[Sar][NMeV]; ester I:1-I:C, II:1-II:C; linker I:N-II:N via Actinocin(1to9); configuration not given here), the T/C is, setting by setting: under setting [2], 111 % of control; under setting [3], 112 % of control; under setting [4], 112 % of control; under setting [5], 100 % of control; under setting [6], 108 % of control; under setting [7], 154 % of control.

Regarding `CCC(C)C1NC(=O)C(NC(=O)c2c3nc4c(C(=O)NC5C(=O)NC(C(C)CC)C(=O)N6CCCC6C(=O)N(C)CC(=O)N(C)C(C(C)C)C(=O)OC5C)ccc(C)c4oc-3c(C)c(=O)c2N)C(C)OC(=O)C(C(C)C)N(C)C(=O)CN(C)C(=O)C2CCCN2C1=O` (configuration not stated) (I: TIP[Sar][NMeV] / II: TIP[Sar][NMeV]; ester I:1-I:C, II:1-II:C; linker I:N-II:N via Actinocin(1to9); configuration not given here), the T/C is, setting by setting: under setting [2], 112 % of control; under setting [3], 109 % of control; under setting [4], 115 % of control; under setting [5], 105 % of control; under setting [6], 111 % of control; under setting [7], 116 % of control.

As to `O=C(Nc1ccc(C2=NCCCN2)cc1)c1ccc(C(=O)Nc2ccc(C3=NCCCN3)cc2)cc1`, the T/C (endpoint: mean tumor weight, dose: 0.25 mg/kg/injection, schedule: Q01DX011 (ip), vehicle: other, higher = larger tumour) was 73 % of control; the T/C (endpoint: mean tumor weight, dose: 0.5 mg/kg/injection, schedule: Q01DX011 (ip), vehicle: other, higher = larger tumour) was 98 % of control; the T/C (endpoint: mean tumor weight, dose: 1.0 mg/kg/injection, schedule: Q01DX011 (ip), vehicle: other, higher = larger tumour) was 85 % of control; the T/C (endpoint: mean tumor weight, dose: 2.0 mg/kg/injection, schedule: Q01DX011 (ip), vehicle: other, higher = larger tumour) is 73 % of control; the T/C (endpoint: mean tumor weight, dose: 4.0 mg/kg/injection, schedule: Q01DX011 (ip), vehicle: other, higher = larger tumour) was 7 % of control.

Turning to `CCN=C=NCCCN(C)C`, the T/C reads like this: (endpoint: median survival time, dose: 10.0 mg/kg/injection, schedule: Q01DX009 (ip), vehicle: saline, higher = longer survival) 106 % of control; (endpoint: median survival time, dose: 20.0 mg/kg/injection, schedule: Q01DX009 (ip), vehicle: saline, higher = longer survival) 107 % of control; (endpoint: median survival time, dose: 40.0 mg/kg/injection, schedule: Q01DX009 (ip), vehicle: saline, higher = longer survival) 93 % of control; (endpoint: median survival time, dose: 80.0 mg/kg/injection, schedule: Q01DX009 (ip), vehicle: saline, higher = longer survival) 96 % of control.

`[CH3][Sn]([CH3])([CH3])[O]C(=O)CCl`: the T/C was 100 % of control (endpoint: median survival time, dose: 0.19 mg/kg/injection, schedule: Q01DX009 (ip), vehicle: saline, higher = longer survival); 104 % of control (endpoint: median survival time, dose: 0.38 mg/kg/injection, schedule: Q01DX009 (ip), vehicle: saline, higher = longer survival); 88 % of control and 97 % of control under setting [1].

With `N#Cc1ccc(S(N)(=O)=O)cc1`, the T/C (endpoint: mean tumor weight, dose: 6.2 mg/kg/injection, schedule: Q01DX011 (ip), vehicle: carboxymethylcellulose (CMC), higher = larger tumour) is 52 % of control and the T/C (endpoint: mean tumor weight, dose: 12.5 mg/kg/injection, schedule: Q01DX011 (ip), vehicle: carboxymethylcellulose (CMC), higher = larger tumour) is 66 % of control.

Values taken from PubChem BioAssay AID270 (DTP/NCI, 2004).
